Converted amounts (≈) assume the structure as drawn. Structures can show the parent of a compound that is named as a salt. Where two headings read alike, the source gives them in different places. Blank lines part the entries; values can stand above or below the compound they belong to.
Legend:
[1] = from equation (1); 30 percent ethanol/water; polyurethane membrane 0.0038 cm
[2] = in water at 25° C.; reported; cited from earlier work
[3] = assay type: physicochemical; conditions: not told
Experimental: Several pH controlled reservoir systems were prepared in a similar manner employing non-aqueous or aqueous glycol vehicles and different buffering agents. For this example, sorbitol USP and 70 percent aqueous propylene glycol were employed. The pH was adjusted with either Na2 HPO4 or Na2 CO3. pH measurements were made on a pH meter with a standard glass electrode and the flux determined in a diffusion cell employing a mineral oil soaked Celgard membrane to separate the buffered reservoir from the receptor phase.

[4] = Solubility of timolol maleate in pH controlled glycol reservoir vehicles; assay type: physicochemical
[5] = Solubility in mineral oil; assay type: physicochemical
[6] = From the text: The following operation illustrates with timolol the relationship among pH, the concentration C, of the timolol base in solution in the reservoir, and the flux calculated from the data as well as the observed flux obtained by placing the compositions behind the selected membrane in a diffusion cell and measuring the rate of release into an isotonic phosphate buffer of pH 7.4.
As a first step in determining the relationship between pH, concentration of timolol, its pK and the pH of the reservoir, an aqueous solution of 7.0 mg/ml of timolol was placed in a diffusion measuring cell fitted with a 1.5 mil (0.0038 cm) thick silicone membrane and the transport of timolol from the reservoir of the test cell to an isotonic pH 7.4 receptor phase was measured over a period of about eight hours by sampling the solution in the receptor phase, assaying this solution for drug by direct ultraviolet assay method and calculating the drug concentration over time, thereafter plotting the drug diffused per square centimeter versus time and calculating the regression line.
From the calculated concentration of the timolol base, the previously determined values for D and K and the known thickness of the membrane, the steady state flux was calculated (equation (1)). Thereafter, the steady state flux was determined experimentally by measuring the transport of timolol at each pH from the buffer system into an isotonic receptor phase through the silicone membrane.

[7] = Concentration of timolol base in aqueous buffer solutions calculated with the Henderson-Hasselbalch equation; assay type: physicochemical; conditions: pH 9.0; 15 mg/ml timolol maleate in aqueous buffer
From the text: where T is the time lag. Thus, after determining T, D may be calculated. By experimentally determining flux, and substituting in equation (1), K may be obtained. Having thus determined K and D, the desired flux may be achieved by making appropriate modifications of the pH, thereby the concentration, and/or the thickness of the membrane. The appropriate modifications in pH may be arrived at by preparing a series of buffer solutions containing a known quantity of the salt form of drug at various pH values and substituting in the Henderson-Hasselbalch equation, [formula] C, the concentration of the unionized form, may be calculated.

product KD [1]: 9.38×10^-4 cm^2 /hr
Compound: CC1=C(CC(=O)O)c2cc(F)ccc2/C1=C\c1ccc([S+](C)[O-])cc1 (centres unmarked) [sulindac]
pKa [2]: 4.7

Compound: CC(C)(C)NC[C@H](O)COc1nsnc1N1CCOCC1 [timolol maleate]
Jobs (flux) ([3]; pH 6.9): 6.7 mcg/cm^2 /hr | Jobs (flux) ([3]; pH 7.6): 7.4 mcg/cm^2 /hr | Jobs (flux) ([3]; pH 9.6): 2.8 mcg/cm^2 /hr | solubility ([4]; 70% propylene glycol + na2co3, organic solvent or mixture, 70% Propylene glycol +Na2 CO3, apparent pH 7.6): 124 mg/mL | solubility ([4]; sorbitol usp + na2co3, Sorbitol USP +Na2 CO3, apparent pH 9.6): 0.7 mg/mL | solubility ([4]; sorbitol usp + na2hpo4, Sorbitol USP +Na2 HPO4, apparent pH 6.9): 17.2 mg/mL | solubility in mineral oil [5]: substantially insoluble

Compound: CC(C)(C)NC[C@H](O)COc1nsnc1N1CCOCC1 [timolol]
partition coefficient between drug reservoir and membrane, K [6]: 2.05 | time lag, T ([6]; aqueous solution of 7.0 mg/ml timolol, 1.5 mil silicone membrane, plot extrapolated to time axis): 0.0096 h | drug diffusion coefficient in the membrane, D ([6]; silicone membrane, from equations (1) and (2)): 2.5×10^-4 cm^2 /hr | solubility ([5]; organic solvent or mixture, 32° C.): ~7 mg/mL (≈ 22.1 mM) | Cs Timolol Base [7]: 4210 µg/mL

— patent US4756710A, “pH-Mediated drug delivery system” (Merck & Co., Inc., priority 1986, dated 1988)
